The source made the active and inactive calls. The rule behind the calls is not given here.
Legend:
LNCaP [1] = assay: Antiproliferative activity against human LNCAP cells incubated for 48 hrs by MTT assay; type: functional, cell-based
Jurkat = assay: Antiproliferative activity against human Jurkat cells incubated for 48 hrs by MTT assay; type: functional, cell-based
LNCaP [2] = assay: Selectivity index, ratio of IC50 for human PBMC to IC50 for human LNCAP cells
HL-60 [3] = assay: Antiproliferative activity against human HL60 cells incubated for 48 hrs by MTT assay; type: functional, cell-based; details: HL-60, 48 h
HL-60 [4] = assay: Induction of DNA fragmentation in human HL60 cells at 50 uM after 24 hrs using propidium iodide staining by flow cytometric analysis; type: functional, cell-based
LNCaP [5] = assay: Selectivity index, ratio of IC50 for African green monkey Vero cells to IC50 for human LNCAP cells; type: functional
MDA-MB-231 [6] = assay: Induction of DNA fragmentation in human MDA-MB-231 cells at 50 uM after 24 hrs using propidium iodide staining by flow cytometric analysis; type: functional, cell-based
Vero = assay: Cytotoxicity against African green monkey Vero cells incubated for 48 hrs by MTT assay; type: cell-based; details: Chlorocebus sabaeus
PBMC = assay: Antiproliferative activity against human PBMC incubated for 48 hrs by MTT assay; type: cell-based
MDA-MB-231 [7] = assay: Antiproliferative activity against human MDA-MB-231 cells incubated for 48 hrs by MTT assay; type: functional, cell-based; details: MDA-MB-231, 48 h

Row | SMILES | IC50 (LNCaP [1]) [µM] | IC50 (Jurkat) [µM] | Ratio IC50 (LNCaP [2]) | IC50 (HL-60 [3]) [µM] | Activity (HL-60 [4]) | Ratio IC50 (LNCaP [5]) | Activity (MDA-MB-231 [6]) | IC50 (Vero) [µM] | IC50 (PBMC) [µM] | IC50 (MDA-MB-231 [7]) [µM]
1 | CC(C)(C)OC(=O)N1[C@@H](/C=C/c2ccc([N+](=O)[O-])cc2)COC1(C)C | 11 | 46 | >9 | 23 | Active | >9 | inactive | > 100 | > 100 | 32
2 | CC(C)(C)OC(=O)N1[C@@H](/C=C\c2ccc([N+](=O)[O-])cc2)COC1(C)C | 27 | 42 | – | 18 | Active | – | inactive | > 100 | > 100 | 32
3 | CC(C)(C)OC(=O)N1[C@@H](C(=O)Nc2ccc([N+](=O)[O-])cc2)COC1(C)C | > 80 | > 50 | – | > 50 | – | – | – | – | – | > 80
4 | COC(=O)c1ccc(CC[C@H]2COC(C)(C)N2C(=O)OC(C)(C)C)cc1 | 37 | > 50 | – | 20 | – | – | – | – | – | > 80
5 | CC(C)(C)OC(=O)N1[C@@H](CSc2ccc([N+](=O)[O-])cc2)COC1(C)C | > 80 | > 50 | – | > 50 | – | – | – | – | – | > 80
